In patent US7579315B2, “Casein peptides for alleviating or preventing aging of skin” (Pepsyn Ltd., priority 2000, dated 2009):

Test system: Human keratinocytes (HatKat)
Experiment: Growth of keratinocytes, cell count in Coulter counter after three days
Type: cell-based
Settings: 10 ng/ml EGF versus medium with 0.5% FCS
Method: Human keratinocytes (HatKat) were grown in keratinocyte growth medium (TCS Cellworks Ltd.) until 20% confluence. Then, in the same medium, the keratinocytes were grown for three days with 0.5% foetal calf serum (FCS), at which point the cells were counted in a Coulter® counter. The cell numbers obtained are set out in Table 3 below.

## epidermal growth factor (NSDSECPLSHDGYCLHDGVCMYIEALDKYACNCVVGYIGERCQYRDLKWWELR; UniProt P01133 971-1023, looked up) [EGF, epidermal growth factor, comparison growth factor at 10 ng/ml]
  increase in the growth of keratinocytes (in words): relatively modest increase
